What was measured:
Human δ-opioid (DOP) = molecular target: T1, Human δ-opioid (DOP) (Homo sapiens, UniProt P41143); assay: Radioligand binding, human δ-opioid (DOP) membranes, FlashPlate, [3H]-Bremazocine; details: compound at 10 μM; for A1: inhibition of radioligand binding, human δ-opioid (DOP): [3H]-Bremazocine
T1 construct: purchased Perkin Elmer Biosignal
How it was run: (§1)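 Cloned human receptor membranes were coated onto FlashPlate wells and incubated with radioligand and compound (added from a 0.5 mM DMSO daughter plate) for 1 hour at room temperature in the dark. Scintillation counting gave percent inhibition, with DMSO defining total and reference ligand defining non-specific binding.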

Human κ-Opioid (KOP) = molecular target: T2, Human κ-Opioid (KOP) (Homo sapiens, UniProt P41145); assay: Radioligand binding, human κ-opioid (KOP) membranes, filtration, [3H]-Diprenorphine; details: compound at 10 μM; for A2: inhibition of radioligand binding, human κ-opioid (KOP): [3H]-Diprenorphine
T2 construct: purchased Perkin Elmer Biosignal
How it was run: (§2)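 Filtration binding on cloned human receptor membranes (1 Unit/well), [125I]-Substance P for NK1 and [3H]-Diprenorphine for KOP, 1 h at room temperature. Filters PEI-presoaked, washed with cold 50 mM Tris-HCl pH 7.4, counted by scintillation; percent inhibition calculated, reference ligand defining non-specific binding.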

Human Melanocortin (MC3) = molecular target: T3, Human Melanocortin (MC3) (Homo sapiens, UniProt P41968); assay: Radioligand binding, human melanocortin MC3 membranes, FlashPlate, [125I]-NDP-αMSH; details: compound at 10 μM; for A3: inhibition of radioligand binding, human melanocortin (MC3): [125I]-NDP-αMSH
T3 construct: purchased Perkin Elmer Biosignal
How it was run: as §1

Human Melanocortin (MC4) = molecular target: T4, Human Melanocortin (MC4) (Homo sapiens, UniProt P32245); assay: Radioligand binding, human melanocortin MC4 membranes, FlashPlate, [125I]-NDP-αMSH; details: compound at 10 μM; for A4: inhibition of radioligand binding, human melanocortin (MC4): [125I]-NDP-αMSH
T4 construct: purchased Perkin Elmer Biosignal
How it was run: as §1

Human melanocortin (MC5) = molecular target: T5, Human melanocortin (MC5) (Homo sapiens, UniProt P33032); assay: Radioligand binding, human melanocortin MC5 membranes, FlashPlate, [125I]-NDP-αMSH; details: compound at 10 μM; for A5: inhibition of radioligand binding, human melanocortin (MC5): [125I]-NDP-αMSH
T5 construct: purchased Perkin Elmer Biosignal
How it was run: as §1

[1] = molecular target: T6, Human melanin-concentrating hormone (MCH1) (Homo sapiens, UniProt Q99705); assay: Radioligand binding, human melanin-concentrating hormone MCH1 membranes, FlashPlate, [125I]-S36057; details: compound at 10 μM; for A6: inhibition of radioligand binding, human melanin-concentrating hormone (MCH1): [125I]-S36057
T6 construct: purchased Perkin Elmer Biosignal
How it was run: as §1

Human μ-opioid (MOP) = molecular target: T7, Human μ-opioid (MOP) (Homo sapiens, UniProt P35372); assay: Radioligand binding, human μ-opioid (MOP) membranes, FlashPlate, [3H]-Naloxone; details: compound at 10 μM; for A7: inhibition of radioligand binding, human μ-opioid (MOP): [3H]-Naloxone
T7 construct: purchased Perkin Elmer Biosignal
How it was run: as §1

Human neurokinin (NK1) = molecular target: T8, Human neurokinin (NK1) (Homo sapiens, UniProt P25103); assay: Radioligand binding, human neurokinin NK1 membranes, filtration, [125I]-Substance P; details: compound at 10 μM; for A8: inhibition of radioligand binding, human neurokinin (NK1): [125I]-Substance P
T8 construct: purchased Perkin Elmer Biosignal
How it was run: as §2

[2] = molecular target: T9, Human neuropeptide Y (NPY-Y1) (Homo sapiens, UniProt P25929); assay: Radioligand binding, human neuropeptide Y NPY-Y1 membranes, FlashPlate, [125I]-PYY; details: compound at 10 μM; for A9: inhibition of radioligand binding, human neuropeptide Y (NPY-Y1): [125I]-PYY
T9 construct: purchased Perkin Elmer Biosignal
T9 sequence (P25929 1-384): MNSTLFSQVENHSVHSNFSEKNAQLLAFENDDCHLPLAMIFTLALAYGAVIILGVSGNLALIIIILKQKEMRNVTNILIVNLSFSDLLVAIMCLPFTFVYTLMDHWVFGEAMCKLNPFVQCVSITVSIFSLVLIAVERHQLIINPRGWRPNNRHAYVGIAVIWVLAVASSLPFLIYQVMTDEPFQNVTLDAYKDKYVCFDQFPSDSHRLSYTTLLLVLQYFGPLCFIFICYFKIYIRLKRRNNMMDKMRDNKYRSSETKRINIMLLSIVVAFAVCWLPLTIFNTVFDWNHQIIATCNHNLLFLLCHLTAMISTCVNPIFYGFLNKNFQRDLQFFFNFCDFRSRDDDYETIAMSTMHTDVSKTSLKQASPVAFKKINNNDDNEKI
How it was run: as §1

Human opioid (ORL1) = molecular target: T10, Human opioid (ORL1) (Homo sapiens, UniProt P41146); assay: Radioligand binding, human opioid ORL1 membranes, FlashPlate, [125I]-Nociceptin; details: compound at 10 μM; for A10: inhibition of radioligand binding, human opioid (ORL1): [125I]-Nociceptin
T10 construct: purchased Perkin Elmer Biosignal
How it was run: as §1

Mouse urotensin (mUR2) = molecular target: T11, Mouse urotensin (mUR2) (Mus musculus, UniProt Q8VIH9); assay: Radioligand binding, mouse urotensin mUR2 membranes, FlashPlate, [125I]-Urotensin II; details: compound at 10 μM; for A11: inhibition of radioligand binding, mouse urotensin (mUR2): [125I]-Urotensin II
T11 construct: purchased Perkin Elmer Biosignal
T11 sequence (Q8VIH9 1-385): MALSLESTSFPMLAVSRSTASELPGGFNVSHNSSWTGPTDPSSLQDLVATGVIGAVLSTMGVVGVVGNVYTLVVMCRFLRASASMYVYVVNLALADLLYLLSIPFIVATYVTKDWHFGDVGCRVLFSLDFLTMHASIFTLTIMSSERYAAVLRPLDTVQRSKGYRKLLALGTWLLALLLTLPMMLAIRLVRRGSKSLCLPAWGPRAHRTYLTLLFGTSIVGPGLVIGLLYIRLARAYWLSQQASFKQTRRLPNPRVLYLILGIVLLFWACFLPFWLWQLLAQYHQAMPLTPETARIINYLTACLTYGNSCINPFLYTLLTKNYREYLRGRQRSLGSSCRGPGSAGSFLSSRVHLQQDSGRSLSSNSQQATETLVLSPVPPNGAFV
How it was run: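 Cloned mouse urotensin (mUR2) receptor membranes from Perkin Elmer Biosignal were immobilized in FlashPlate microplates using a proprietary coating. Each well got 19.5 μl buffer, then 0.5 μl of DMSO, reference ligand, or compound. Adding 5 μl of [125I]-Urotensin II, diluted to 5× final concentration in binding buffer, started binding. Plates were sealed with TopSeal-A and incubated 1 hour at room temperature in the dark. Wells were counted for 30 seconds each on a TopCount after a 60-second delay, and percentage inhibition was calculated.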

T4 sequence (P32245 whole entry): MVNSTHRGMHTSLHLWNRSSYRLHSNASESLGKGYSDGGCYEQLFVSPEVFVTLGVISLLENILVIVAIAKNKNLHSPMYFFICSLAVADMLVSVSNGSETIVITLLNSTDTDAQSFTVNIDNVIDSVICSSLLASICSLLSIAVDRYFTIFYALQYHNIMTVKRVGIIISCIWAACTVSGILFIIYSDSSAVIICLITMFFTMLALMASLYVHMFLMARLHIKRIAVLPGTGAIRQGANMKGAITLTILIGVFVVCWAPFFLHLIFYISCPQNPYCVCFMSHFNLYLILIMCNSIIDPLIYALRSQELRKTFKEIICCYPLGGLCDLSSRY
T2 sequence (P41145 whole entry): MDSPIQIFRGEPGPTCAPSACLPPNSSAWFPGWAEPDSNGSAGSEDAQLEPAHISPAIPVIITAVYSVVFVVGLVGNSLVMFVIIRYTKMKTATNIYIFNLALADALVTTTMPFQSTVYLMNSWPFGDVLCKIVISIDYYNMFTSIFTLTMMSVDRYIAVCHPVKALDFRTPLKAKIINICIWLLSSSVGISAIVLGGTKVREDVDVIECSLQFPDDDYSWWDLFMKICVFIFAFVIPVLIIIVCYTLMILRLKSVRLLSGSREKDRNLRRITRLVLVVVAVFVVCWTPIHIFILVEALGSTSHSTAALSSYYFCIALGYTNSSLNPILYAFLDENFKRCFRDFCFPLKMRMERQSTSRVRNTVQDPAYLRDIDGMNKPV
T1 sequence (P41143 whole entry): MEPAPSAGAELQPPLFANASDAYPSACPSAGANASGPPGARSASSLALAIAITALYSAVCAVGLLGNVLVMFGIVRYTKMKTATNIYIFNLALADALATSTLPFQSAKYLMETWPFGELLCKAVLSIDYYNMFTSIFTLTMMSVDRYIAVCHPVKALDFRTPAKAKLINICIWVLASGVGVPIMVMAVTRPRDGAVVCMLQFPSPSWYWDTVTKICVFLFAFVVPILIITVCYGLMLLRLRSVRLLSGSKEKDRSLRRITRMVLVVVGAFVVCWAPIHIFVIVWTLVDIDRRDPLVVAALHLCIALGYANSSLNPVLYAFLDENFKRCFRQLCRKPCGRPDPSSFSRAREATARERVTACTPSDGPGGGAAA
T6 sequence (Q99705 whole entry): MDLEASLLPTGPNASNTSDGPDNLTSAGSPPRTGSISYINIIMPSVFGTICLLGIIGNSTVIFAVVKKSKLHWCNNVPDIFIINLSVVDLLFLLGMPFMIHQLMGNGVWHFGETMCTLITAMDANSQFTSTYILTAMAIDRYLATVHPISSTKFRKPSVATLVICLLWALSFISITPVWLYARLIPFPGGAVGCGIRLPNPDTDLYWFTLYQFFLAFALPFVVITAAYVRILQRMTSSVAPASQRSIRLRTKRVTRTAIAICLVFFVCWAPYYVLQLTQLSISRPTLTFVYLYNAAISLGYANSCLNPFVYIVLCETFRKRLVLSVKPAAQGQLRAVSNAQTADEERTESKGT
T8 sequence (P25103 whole entry): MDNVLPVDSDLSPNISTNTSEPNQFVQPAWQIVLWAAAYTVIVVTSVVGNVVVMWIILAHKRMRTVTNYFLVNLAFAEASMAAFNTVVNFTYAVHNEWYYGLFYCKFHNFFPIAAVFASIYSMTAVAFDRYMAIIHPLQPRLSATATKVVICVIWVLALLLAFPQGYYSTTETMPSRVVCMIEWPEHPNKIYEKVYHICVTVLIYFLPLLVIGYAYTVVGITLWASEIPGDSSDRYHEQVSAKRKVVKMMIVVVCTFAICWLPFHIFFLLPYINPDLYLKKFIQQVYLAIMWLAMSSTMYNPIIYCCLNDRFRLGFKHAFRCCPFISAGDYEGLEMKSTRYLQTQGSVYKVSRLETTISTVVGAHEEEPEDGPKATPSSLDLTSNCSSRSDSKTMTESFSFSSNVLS
T10 sequence (P41146 whole entry): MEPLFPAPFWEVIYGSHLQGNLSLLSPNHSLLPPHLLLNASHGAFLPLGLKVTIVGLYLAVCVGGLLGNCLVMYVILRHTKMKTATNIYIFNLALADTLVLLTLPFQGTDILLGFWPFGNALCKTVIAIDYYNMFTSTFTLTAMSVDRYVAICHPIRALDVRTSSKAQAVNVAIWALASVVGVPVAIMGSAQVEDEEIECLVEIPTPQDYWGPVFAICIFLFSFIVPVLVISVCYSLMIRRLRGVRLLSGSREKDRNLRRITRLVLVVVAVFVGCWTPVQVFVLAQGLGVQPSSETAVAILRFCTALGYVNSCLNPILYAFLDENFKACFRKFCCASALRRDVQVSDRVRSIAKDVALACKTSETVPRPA
T7 sequence (P35372 whole entry): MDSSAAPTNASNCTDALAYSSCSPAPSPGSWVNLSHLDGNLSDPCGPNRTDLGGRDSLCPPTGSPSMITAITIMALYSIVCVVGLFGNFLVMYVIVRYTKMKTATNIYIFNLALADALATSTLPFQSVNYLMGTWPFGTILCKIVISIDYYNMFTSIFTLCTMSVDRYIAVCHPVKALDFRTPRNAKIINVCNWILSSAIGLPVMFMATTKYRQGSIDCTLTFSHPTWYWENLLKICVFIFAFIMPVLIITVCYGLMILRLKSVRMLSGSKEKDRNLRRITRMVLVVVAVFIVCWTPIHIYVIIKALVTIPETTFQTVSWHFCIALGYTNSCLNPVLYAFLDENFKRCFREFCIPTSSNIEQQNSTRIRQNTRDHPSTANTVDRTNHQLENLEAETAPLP
T3 sequence (P41968 whole entry): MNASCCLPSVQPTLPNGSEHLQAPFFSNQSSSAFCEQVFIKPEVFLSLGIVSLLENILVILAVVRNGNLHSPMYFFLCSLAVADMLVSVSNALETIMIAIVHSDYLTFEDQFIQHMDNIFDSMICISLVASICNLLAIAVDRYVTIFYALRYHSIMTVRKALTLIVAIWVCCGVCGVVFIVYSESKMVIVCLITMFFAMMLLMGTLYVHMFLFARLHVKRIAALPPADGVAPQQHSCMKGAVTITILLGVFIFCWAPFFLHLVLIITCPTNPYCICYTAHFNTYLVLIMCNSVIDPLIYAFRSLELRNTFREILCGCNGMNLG
T5 sequence (P33032 whole entry): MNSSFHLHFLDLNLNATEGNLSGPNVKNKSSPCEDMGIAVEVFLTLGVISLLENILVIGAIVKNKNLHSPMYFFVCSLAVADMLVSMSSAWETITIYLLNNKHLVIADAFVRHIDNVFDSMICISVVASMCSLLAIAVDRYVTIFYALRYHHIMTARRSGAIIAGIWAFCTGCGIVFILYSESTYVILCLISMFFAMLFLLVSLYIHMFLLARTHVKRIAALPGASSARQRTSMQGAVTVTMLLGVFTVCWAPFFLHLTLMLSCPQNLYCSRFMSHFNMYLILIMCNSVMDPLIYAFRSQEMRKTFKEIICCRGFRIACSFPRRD

What does the source list for N=C(N)NCC(=O)NC1C(OCc2ccc(Cl)cc2)OC(COCc2ccc3ccccc3c2)C(O)C1OCc1ccc(Cl)cc1 (single isomer, unassigned) [compound 507]?
A1: inhibition of radioligand binding, human δ-opioid (DOP) (Human δ-opioid (DOP)): − (“−” indicates less than 50% inhibition at 10 μM); A2: inhibition of radioligand binding, human κ-opioid (KOP) (Human κ-Opioid (KOP); 10 µM): − (“−” indicates less than 50% inhibition at 10 μM); A3: inhibition of radioligand binding, human melanocortin (MC3) (Human Melanocortin (MC3); 10 µM): − (“−” indicates less than 50% inhibition at 10 μM); A4: inhibition of radioligand binding, human melanocortin (MC4) (Human Melanocortin (MC4)): + (“+” indicates greater than 50% inhibition at 10 μM); A5: inhibition of radioligand binding, human melanocortin (MC5) (Human melanocortin (MC5)): + (“+” indicates greater than 50% inhibition at 10 μM); A6: inhibition of radioligand binding, human melanin-concentrating hormone (MCH1) [1]: + (“+” indicates greater than 50% inhibition at 10 μM); A7: inhibition of radioligand binding, human μ-opioid (MOP) (Human μ-opioid (MOP)): − (“−” indicates less than 50% inhibition at 10 μM); A8: inhibition of radioligand binding, human neurokinin (NK1) (Human neurokinin (NK1)): + (“+” indicates greater than 50% inhibition at 10 μM); A9: inhibition of radioligand binding, human neuropeptide Y (NPY-Y1) [2]: − (“−” indicates less than 50% inhibition at 10 μM); A10: inhibition of radioligand binding, human opioid (ORL1) (Human opioid (ORL1)): + (“+” indicates greater than 50% inhibition at 10 μM); A11: inhibition of radioligand binding, mouse urotensin (mUR2) (Mouse urotensin (mUR2)): − (“−” indicates less than 50% inhibition at 10 μM)

How did the “A1 radioligand binding inhibition” value (Human δ-opioid (DOP); human δ-opioid (DOP) membranes) turn out when COC[C@H]1OC(OCc2ccc(Cl)cc2)[C@H](NC(=O)CCCN)[C@@H](OCc2ccccc2)[C@@H]1O (stereo partly drawn) [compound 35] was run?
Its value is “− (“−” indicates less than 50% inhibition at 10 μM)”.

And the “A2 radioligand binding inhibition” value (Human κ-Opioid (KOP); human κ-opioid (KOP) membranes)?
The value was “− (“−” indicates less than 50% inhibition at 10 μM)”.

And the “A3 radioligand binding inhibition” value (Human Melanocortin (MC3); human melanocortin MC3 membranes)?
The value was “− (“−” indicates less than 50% inhibition at 10 μM)”.

And the “A4 radioligand binding inhibition” value (Human Melanocortin (MC4); human melanocortin MC4 membranes)?
The value was “− (“−” indicates less than 50% inhibition at 10 μM)”.

And the “A5 radioligand binding inhibition” value (Human melanocortin (MC5); human melanocortin MC5 membranes)?
The value was “− (“−” indicates less than 50% inhibition at 10 μM)”.

And the “A6 radioligand binding inhibition” value ([1]; human MCH1 membranes)?
Its value is “− (“−” indicates less than 50% inhibition at 10 μM)”.

What about the “A7 radioligand binding inhibition” value (Human μ-opioid (MOP); human μ-opioid (MOP) membranes) of the same molecule?
Its value is “− (“−” indicates less than 50% inhibition at 10 μM)”.

And the “A8 radioligand binding inhibition” value (Human neurokinin (NK1); human neurokinin NK1 membranes)?
Its value is “+ (“+” indicates greater than 50% inhibition at 10 μM)”.

What about the “A9 radioligand binding inhibition” value ([2]; human NPY-Y1 membranes) of the same molecule?
The value was “− (“−” indicates less than 50% inhibition at 10 μM)”.

And the “A10 radioligand binding inhibition” value (Human opioid (ORL1); human ORL1 membranes)?
The value was “− (“−” indicates less than 50% inhibition at 10 μM)”.

What about the “A11 radioligand binding inhibition” value (Mouse urotensin (mUR2); mouse urotensin mUR2 membranes) of the same molecule?
The value was “− (“−” indicates less than 50% inhibition at 10 μM)”.

With CSC1O[C@H](COCc2ccc(Cl)cc2)[C@@H](O)[C@@H](OCc2ccc(-c3ccccc3)cc2)[C@H]1NC(=O)CNC(=N)N (stereo partly drawn) [compound 289] as the molecule, how does the “A1: inhibition of radioligand binding, human δ-opioid (DOP)” value (Human δ-opioid (DOP)) read?
The value was “− (“−” indicates less than 50% inhibition at 10 μM)”.

And the “A2: inhibition of radioligand binding, human κ-opioid (KOP)” value (Human κ-Opioid (KOP))?
The value was “− (“−” indicates less than 50% inhibition at 10 μM)”.

And the “A3: inhibition of radioligand binding, human melanocortin (MC3)” value (Human Melanocortin (MC3))?
Its value is “− (“−” indicates less than 50% inhibition at 10 μM)”.

And the “A4: inhibition of radioligand binding, human melanocortin (MC4)” value (Human Melanocortin (MC4))?
The value was “+ (“+” indicates greater than 50% inhibition at 10 μM)”.

What about the “A5: inhibition of radioligand binding, human melanocortin (MC5)” value (Human melanocortin (MC5)) of the same molecule?
The value was “+ (“+” indicates greater than 50% inhibition at 10 μM)”.

What about the “A6: inhibition of radioligand binding, human melanin-concentrating hormone (MCH1)” value [1] of the same molecule?
The value was “− (“−” indicates less than 50% inhibition at 10 μM)”.

And the “A7: inhibition of radioligand binding, human μ-opioid (MOP)” value (Human μ-opioid (MOP))?
The value was “− (“−” indicates less than 50% inhibition at 10 μM)”.

And the “A8: inhibition of radioligand binding, human neurokinin (NK1)” value (Human neurokinin (NK1))?
The value was “+ (“+” indicates greater than 50% inhibition at 10 μM)”.

What about the “A9: inhibition of radioligand binding, human neuropeptide Y (NPY-Y1)” value [2] of the same molecule?
Its value is “− (“−” indicates less than 50% inhibition at 10 μM)”.

What about the “A10: inhibition of radioligand binding, human opioid (ORL1)” value (Human opioid (ORL1)) of the same molecule?
Its value is “− (“−” indicates less than 50% inhibition at 10 μM)”.

What about the “A11: inhibition of radioligand binding, mouse urotensin (mUR2)” value (Mouse urotensin (mUR2)) of the same molecule?
The value was “− (“−” indicates less than 50% inhibition at 10 μM)”.
